Experimental findings from patent EP1660884B1, “CROWN ETHER DERIVATIVES” (Life Technologies Corporation, priority 2003, dated 2005) are described below.

“Also recorded” adds a separate entry of the source.

In the test the test system is Jurkat cells. As to the kind of experiment: Calibration of sodium indicator fluorescence response in cells (flow cytometry). The format is cell-based. As to conditions: Jurkat cells loaded with 5 µM for 30 minutes at 37 °C, 2 µM gramicidin, extracellular Na+ 0-145 mM, excitation at 488 nm. The procedure: Example 3: Calibration of sodium indicator fluorescence response in cells.
Jurkat cells were loaded with a 5 µM solution of either Compound 25 (a compound according to Formula (I) as shown below), or commercially available SODIUM GREEN tetraacetate indicator (Molecular Probes, Inc., Eugene, OR) and 10 µM for Compound 87 (Example 9) for 30 minutes at 37 °C. The use of PLURONIC dispersing agent helped dissolve the selected indicator. Intracellular sodium concentrations were then established by varying the sodium concentration of the extracellular buffer in the presence of 2 µM gramicidin (a sodium-pore forming antibiotic). The extracellular buffer was set at 0 mM, 10 mM, 20 mM, 50 mM, 100 mM, and 145 mM, respectively. Intracellular fluorescence response of the selected indicators was measured using a FACSCAN flow cytometer and associated software, with fluorescence excitation at 488 nm.

With `CC(=O)OCOC(=O)CN1CCOCCN(CC(=O)OCOC(C)=O)c2ccc(-c3c4cc(F)c(=O)cc-4oc4cc(OCOC(C)=O)c(F)cc34)cc2OCCOc2cc(C)ccc21` [Compound 25], the “intracellular fluorescence intensity as intracellular Na^+ concentration was increased” value is “consistent increase in fluorescence intensity”. Also, under “Figure 3”, the “intracellular fluorescence intensity compared with SODIUM GREEN indicator” value is “substantially brighter intracellular fluorescence intensity than the SODIUM GREEN indicator; also recorded: stronger fluorescence intensity than SODIUM GREEN sodium indicator”.
